According to US7977284B2, “Non-estrogenic alkylphenol derivatives” (Oil Chem Technologies, Inc, priority 2009, dated 2011):

How the values were obtained:
[1] = test system: estrogenicity; details: Jobling and Sumpter 1993; cited from earlier work
[2] = test system: vitellogenin gene expression in trout hepatocytes; assay: Relative estrogenicity compared to estradiol; standard test procedure and stimulation of vitellogenin gene expression in trout hepatocytes; details: for Relative Estrogenicity: compared to estradiol, assigned an estrogenicity value of unity; for estrogenicity (result in words): standard test procedure, vitellogenin gene expression in trout hepatocytes

| Molecule | times less estrogenic compared to Estradiol [1] | Relative Estrogenicity [2] | estrogenicity (result in words) [2] |
| --- | --- | --- | --- |
| CC(C)(C)c1ccc(O)cc1 [4-t-butylphenol] | 1,100 times | – | – |
| CC(C)(C)CC(C)(C)c1ccc(O)cc1 [4-t-octylphenol] | 1,200 times | 0.00037 | relatively high estrogenicity |
| C[C@]12CC[C@@H]3c4ccc(O)cc4CC[C@H]3[C@@H]1CC[C@@H]2O [Estradiol] | – | 1 | – |
| nonylphenol | 9,000 times | 0.000111 | relatively high estrogenicity |
